In patent US6821967B2, “Substituted piperazine derivatives, the preparation thereof and their use as medicaments” (Boehringer Ingelheim Pharma KG, priority 1999, dated 2004):

With COC(=O)CNC(=O)C1(CCCCN2CCN(c3ccc4ccccc4n3)CC2)c2ccccc2-c2ccccc21 [Example 95, 9-[4-(4-quinolin-2-yl-piperazin-1-yl)-butyl]-9H-fluorene-9-carboxylic acid-(methoxycarbonyl-methyl)-amide] the melting point was 53 to 55 °C.
O=C(NCc1ccc(F)cc1F)C1(CCCCN2CCN(c3ccc4ccccc4n3)CC2)c2ccccc2-c2ccccc21 [Example 84, 9-[4-(4-quinolin-2-yl-piperazin-1-yl)-butyl]-9H-fluorene-9-carboxylic acid-2,4-difluoro-benzylamide] gave a melting point of 116 to 118 °C.
Molecule C[C@@H]1CN(c2ccc3ccccc3n2)C[C@H](C)N1CCCCC1(C(=O)NCc2ccc(F)cc2)c2ccccc2-c2ccccc21 [Example 65, 9-[4-(cis-2,6-dimethyl-4-quinolin-2-yl-piperazin-1-yl)butyl]-9H-fluorene-9-carboxylic acid-4-fluoro-benzylamide] has a melting point of 62 °C.
In the case of C[C@@H]1CN(c2nc3ccccc3s2)C[C@H](C)N1CCCCC1(C(=O)NCc2ccc(F)cc2)c2ccccc2-c2ccccc21 [Example 70, 9-[4-(4-benzothiazol-2-yl-cis-2,6-dimethyl-piperazin-1-yl)-butyl]-9H-fluorene-9-carboxylic acid-4-fluoro-benzylamide], the melting point is reported as 171 °C.
For C[C@H]1CN(c2ccc3ccccc3n2)CCN1CCCCC1(C(=O)NCC(F)(F)F)c2ccccc2-c2ccccc21 [Example 38, 9-{4-[(S)-2-methyl-4-quinolin-2-yl-piperazin-1-yl]-butyl}-9H-fluorene-9-carboxylic acid-(2,2,2-trifluoro-ethyl)-amide], the melting point was 102 °C.
Work on CCn1c(N2CCN(CCCCC3(C(=O)NCC(F)(F)F)c4ccccc4-c4ccccc43)CC2)nc2ccccc21 [Example 11, 9-{4-[4-(1-ethyl-1H-benzimidazol-2-yl)-piperazin-1-yl]-butyl}-9H-fluorene-9-carboxylic acid-(2,2,2-trifluoro-ethyl)-amide] yielded a melting point of 55 °C.
Molecule Cn1c(N2CCN(CCCCC3(C(=O)NCC(F)(F)F)c4ccccc4-c4ccccc43)CC2)nc2cccnc21 [Example 15, 9-{4-[4-(3-methyl-3H-imidazo[4,5]pyridin-2-yl)-piperazin-1-yl]-butyl}-9H-fluorene-9-carboxylic acid-(2,2,2-trifluoro-ethyl)-amide] has a melting point of 60 °C.
Cn1c(N2CCN(CCCCC3(C(=O)NCC(F)(F)F)c4ccccc4-c4ccccc43)CC2)nc2ccc(F)cc21 [Example 17, 9-{4-[4-(6-fluoro-1-methyl-1H-benzimidazol-2-yl)-piperazin-1-yl]-butyl}-9H-fluorene-9-carboxylic acid-(2,2,2-trifluoro-ethyl)-amide] showed a melting point of 54 °C.
Cn1c(N2CCN(CCCCC3(C(=O)NCc4ccc(F)cc4)c4ccccc4-c4ccccc43)CC2)nc2cccnc21 [Example 63, 9-{4-[4-(3-methyl-3H-imidazo[4,5]-pyridin-2-yl)-piperazin-1-yl]-butyl}-9H-fluorene-9-carboxylic acid-4-fluoro-benzylamide] gave a melting point of 153 °C.
COc1cccc2c1nc(N1CCN(CCCCC3(C(=O)NCC(F)(F)F)c4ccccc4-c4ccccc43)CC1)n2C [Example 20, 9-{4-[4-(4-methoxy-1-methyl-1H-benzimidazol-2-yl)-piperazin-1-yl]-butyl}-9H-fluorene-9-carboxylic acid-(2,2,2-trifluoro-ethyl)-amide] gave a melting point of 146 °C.
O=C(NCC(F)(F)F)C1(CCCCN2CCN(c3ccc4ccccc4n3)CC2)c2ccccc2Oc2ccccc21 [Example 103, 9-[4-(4-quinolin-2-yl-piperazin-1-yl)-butyl]-9H-xanthene-9-carboxylic acid-(2,2,2-trifluoro-ethyl)-amide] gave a melting point of 178 °C.
With O=C(NCC(F)(F)F)C1(CCCCN2CCN(c3nc4ccccc4o3)CC2)c2ccccc2-c2ccccc21 [Example 2, 9-[4-(4-(benzoxazol-2-yl)-piperazin-1-yl)-butyl]-9H-fluorene-9-carboxylic acid-(2,2,2-trifluoro-ethyl)-amide] the melting point was 128 °C.
Molecule C[C@@H]1CN(c2ccc3ccccc3n2)C[C@H](C)N1CCCCC1(C(=O)NCc2ccc(F)c(F)c2)c2ccccc2-c2ccccc21 [Example 98, 9-[4-(cis-2,6-dimethyl-4-quinolin-2-yl-piperazin-1-yl)-butyl]-9H-fluorene-9-carboxylic acid-3,4-difluoro-benzylamide] has a melting point of 162 °C.
Work on COc1cccc2ccc(N3CCN(CCCCC4(C(=O)NCC(F)(F)F)c5ccccc5-c5ccccc54)CC3)nc12 [Example 30, 9-{4-[4-(8-methoxy-quinolin-2-yl)-piperazin-1-yl]-butyl}-9H-fluorene-9-carboxylic acid-(2,2,2-trifluoro-ethyl)-amide] yielded a melting point of 74 °C.
With O=C(NCC(F)(F)F)C1(CCCCN2CCN(c3ccc4cc(Cl)ccc4n3)CC2)c2ccccc2-c2ccccc21 [Example 28, 9-{4-[4-(6-chloro-quinolin-2-yl)-piperazin-1-yl]-butyl}-9H-fluorene-9-carboxylic acid-(2,2,2-trifluoro-ethyl)-amide] the melting point was 151 °C.
With O=C(NCC(F)(F)F)C1(CCCCN2CCN(c3cc(-c4ccccc4)c4ccccc4n3)CC2)c2ccccc2-c2ccccc21 [Example 25, 9-{4-[4-(4-phenyl-quinolin-2-yl)-piperazin-1-yl]-butyl}-9H-fluorene-9-carboxylic acid-(2,2,2-trifluoro-ethyl)-amide] the melting point was 105 °C.
Work on O=C(NCc1ccc(F)cc1)C1(CCCCN2CCN(c3ccc4c(Cl)cccc4n3)CC2)c2ccccc2-c2ccccc21 [Example 54, 9-{4-[4-(5-chloro-quinolin-2-yl)-piperazin-1-yl]-butyl}-9H-fluorene-9-carboxylic acid-4-fluoro-benzylamide] yielded a melting point of 140 °C.
Molecule CCCNC(=O)C1(CCCCN2CCN(c3nc4ccccc4n3C)CC2)c2ccccc2-c2ccccc21 [Example 91, 9-{4-[4-(1-methyl-1H-benzimidazol-2-yl)-piperazin-1-yl]-butyl}-9H-fluorene-9-carboxylic acid propylamide] has a melting point of 126 °C.
CCCCNC(=O)C1(CCCCN2CCN(c3ccc4ccccc4n3)CC2)c2ccccc2Oc2ccccc21 [Example 118, 9-[4-(4-quinolin-2-yl-piperazin-1-yl)-butyl]-9H-xanthene-9-carboxylic acid-Butylamide] showed a melting point of 45 to 53 °C.
O=C(NCC(F)(F)F)C1(CCCCN2CCN(c3ccc4cccc(O)c4n3)CC2)c2ccccc2-c2ccccc21 [Example 31, 9-{4-[4-(8-hydroxy-quinolin-2-yl)-piperazin-1-yl]-butyl}-9H-fluorene-9-carboxylic acid-(2,2,2-trifluoro-ethyl)-amide] showed a melting point of 159 °C.
O=C(NCC(F)(F)F)C1(CCCCN2CCN(c3nc4ccccc4o3)CC2)c2ccccc2Oc2ccccc21 [Example 101, 9-[4-(4-benzoxazol-2-yl-piperazin-1-yl)-butyl]-9H-xanthene-9-carboxylic acid-(2,2,2-trifluoro-ethyl)-amide] gave a melting point of 196 to 197 °C.
In the case of O=C(NCC(F)(F)F)C1(CCCCN2CCN(c3nc4ccccc4s3)CC2)c2ccccc2Oc2ccccc21 [Example 100, 9-[4-(4-benzothiazol-2-yl-piperazin-1-yl)-butyl]-9H-xanthene-9-carboxylic acid-(2,2,2-trifluoro-ethyl)-amide], the melting point is reported as 58 to 62 °C.
C[C@@H]1CN(c2ccc3ccccc3n2)C[C@H](C)N1CCCCC1(C(=O)NCC(F)(F)F)c2ccccc2Oc2ccccc21 [Example 111, 9-[4-(cis-2,6-dimethyl-4-quinolin-2-yl-piperazin-1-yl)-butyl]-9H-xanthene-9-carboxylic acid-(2,2,2-trifluoro-ethyl)-amide] gave a melting point of 177 °C.
Molecule O=C(NCc1ccc(F)cc1)C1(CCCCN2CCN(c3nc4ccccc4s3)CC2)c2ccccc2-c2ccccc21 [Example 59, 9-[4-(4-benzothiazol-2-yl-piperazin-1-yl)-butyl]-9H-fluorene-9-carboxylic acid-4-fluoro-benzylamide] has a melting point of 160 °C.
With O=C(NCC(F)(F)F)C1(CCCCN2CCN(c3cnc4c(Cl)cccc4n3)CC2)c2ccccc2-c2ccccc21 [Example 23, 9-{4-[4-(5-chloro-quinoxalin-2-yl)-piperazin-1-yl]-butyl}-9H-fluorene-9-carboxylic acid-(2,2,2-trifluoro-ethyl)-amide] the melting point was 74 °C.
O=C(NCc1ccc(F)cc1)C1(CCCCN2CCN(c3ccc4cccc(Cl)c4n3)CC2)c2ccccc2-c2ccccc21 [Example 55, 9-{4-[4-(8-chloro-quinolin-2-yl)-piperazin-1-yl]-butyl}-9H-fluorene-9-carboxylic acid-4-fluoro-benzylamide] showed a melting point of 66 °C.
Molecule O=C(NCC(F)(F)F)C1(CCCCN2CCN(c3ccc4c(Cl)cccc4n3)CC2)c2ccccc2-c2ccccc21 [Example 27, 9-{4-[4-(5-chloro-quinolin-2-yl)-piperazin-1-yl]-butyl}-9H-fluorene-9-carboxylic acid-(2,2,2-trifluoro-ethyl)-amide] has a melting point of 142 to 143 °C.
In the case of Cn1c(N2CCN(CCCCC3(C(=O)NCC(F)(F)F)c4ccccc4Oc4ccccc43)CC2)nc2ccccc21 [Example 102, 9-{4-[4-(1-methyl-1H-benzimidazol-2-yl)-piperazin-1-yl]-butyl}-9H-xanthene-9-carboxylic acid-(2,2,2-trifluoro-ethyl)-amide], the melting point is reported as 110 °C.
O=C(O)CNC(=O)C1(CCCCN2CCN(c3ccc4ccccc4n3)CC2)c2ccccc2-c2ccccc21 [Example 97, 9-[4-(4-quinolin-2-yl-piperazin-1-yl)-butyl]-9H-fluorene-9-carboxylic acid-(carboxy-methyl)-amide] showed a melting point of 127 to 129 °C.
In the case of CCn1c(N2CCN(CCCCC3(C(=O)NCc4ccc(F)cc4)c4ccccc4-c4ccccc43)CC2)nc2ccccc21 [Example 61, 9-{4-[4-(1-ethyl-1H-benzimidazol-2-yl)-piperazin-1-yl]-butyl}-9H-fluorene-9-carboxylic acid-4-fluoro-benzylamide], the melting point is reported as 166 °C.
Molecule COc1ccc(CNC(=O)C2(CCCCN3CCN(c4nc5ccccc5s4)CC3)c3ccccc3-c3ccccc32)cc1 [Example 76, 9-[4-(4-benzothiazol-2-yl-piperazin-1-yl)-butyl]-9H-fluorene-9-carboxylic acid-4-methoxy-benzylamide] has a melting point of 145 °C.
